Results from patent US11591355B2 (Peloton Therapeutics, Inc., priority 2017, dated 2023).
Where two headings read alike, the source gives them in different places.

Legend:
Human CD73 = target: T1, Human CD73 (Homo sapiens, UniProt P21589); experiment: CD73 Enzyme Assay; assay type: biochemical
T1 construct: purchased R&D Systems; host or cells: CHO cells
T1 sequence (P21589 27-549): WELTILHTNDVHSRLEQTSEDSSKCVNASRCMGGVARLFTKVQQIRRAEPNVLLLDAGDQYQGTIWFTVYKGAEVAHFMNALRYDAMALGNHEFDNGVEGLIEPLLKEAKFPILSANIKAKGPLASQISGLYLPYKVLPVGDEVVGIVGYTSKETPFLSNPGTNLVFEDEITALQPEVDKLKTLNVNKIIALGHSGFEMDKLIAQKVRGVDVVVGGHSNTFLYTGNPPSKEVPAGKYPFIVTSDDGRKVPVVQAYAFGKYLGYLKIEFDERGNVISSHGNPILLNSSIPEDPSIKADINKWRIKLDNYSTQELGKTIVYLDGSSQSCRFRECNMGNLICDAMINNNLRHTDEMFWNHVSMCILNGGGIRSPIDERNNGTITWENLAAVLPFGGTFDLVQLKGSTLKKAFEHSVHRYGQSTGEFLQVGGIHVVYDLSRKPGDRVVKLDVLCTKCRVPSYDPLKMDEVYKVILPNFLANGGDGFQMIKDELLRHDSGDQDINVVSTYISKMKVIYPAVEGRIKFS

[1] = target: T2, CD73 on U138 human neuroglioma cells (Homo sapiens, UniProt P21589); experiment: CD73 Cell-Based Assay; conditions: U138 cells, AMP substrate, 2 hours at 37° C., inorganic phosphate by malachite green
T2 construct: U138 cells were obtained from ATCC and cultured in DMEM with 10% FBS; host or cells: U138 human neuroglioma cells
T2 sequence (P21589 27-549): T1 sequence (P21589 27-549)
Description: U138 human neuroglioma cells were used in these experiments. U138 cells were obtained from ATCC and cultured in DMEM with 10% FBS. 2500 cells were seeded into 96-well plate with 100 μL of media the day before the experiment. Cells were washed twice with 200 μL of assay buffer (20 mM HEPES, pH 7.4; 137 mM NaCl; 5.4 mM KCl; 1.3 mM CaCl2); 4.2 mM NaHCO3; 1 mg/mL glucose) to remove residual inorganic phosphate. After washing, 100 μL of buffer was added to each well, then 100 μL of a mixture of AMP substrate (200 μM) and diluted compound was added to each well. The cells were incubated at 37° C. (with 5% CO2) for 2 hours. 50 μL of supernatant was transferred to a 96-well assay plate and the concentration of inorganic phosphate was determined using malachite green reagent (R&D System; Cat: DY996).

[2] = 0.25 nM hCD73, 25 μM AMP, kinetic read at 360 nm, read-out: CD73 Enzyme Assay IC50

| Compound | IC50 (Human CD73; [2]) [µM] | IC50 [1] [µM] | IC50 (Human CD73; read-out: IC50) [µM] |
| --- | --- | --- | --- |
| O=P(O)(O)COC[C@H]1O[C@@H](n2cnc3c(NCc4ccccc4)ncnc32)[C@H](O)[C@@H]1O [Compound 1, [(2R,3S,4R,5R)-5-[6-(benzylamino)purin-9-yl]-3,4-dihydroxy-tetrahydrofuran-2-yl]methoxymethyl-phosphonic acid] | > 1 | > 1 |  |
| O=P(O)(O)COC[C@H]1O[C@@H](n2cnc3c(NCc4ccccc4)nc(Cl)nc32)[C@H](O)[C@@H]1O [Compound 3, [(2R,3S,4R,5R)-5-[6-(benzylamino)-2-chloro-purin-9-yl]-3,4-dihydroxy-tetrahydrofuran-2-yl]methoxymethyl-phosphonic acid] | 0.1 to 1 | 0.01 to 0.1 |  |
| N#Cc1nc(NCc2ccccc2)c2ncn([C@@H]3O[C@H](COCP(=O)(O)O)[C@@H](O)[C@H]3O)c2n1 [Compound 4, [(2R,3S,4R,5R)-5-[6-(benzylamino)-2-cyano-purin-9-yl]-3,4-dihydroxy-tetrahydrofuran-2-yl]methoxymethyl-phosphonic acid] | < 0.01 | 0.1 to 1 |  |
| Cn1cc(-c2nc(NCc3ccccc3)c3ncn([C@@H]4O[C@H](COCP(=O)(O)O)[C@@H](O)[C@H]4O)c3n2)cn1 [Compound 9, [(2R,3S,4R,5R)-5-[6-(benzylamino)-2-(1-methylpyrazol-4-yl)-purin-9-yl]-3,4-dihydroxy-tetrahydro-furan-2-yl]methoxy-methylphosphonic acid] | 0.1 to 1 | > 1 |  |
| CC(C)Nc1ncnc2c1ncn2[C@@H]1O[C@H](COCP(=O)(O)O)[C@@H](O)[C@H]1O [Compound 12, [(2R,3S,4R,5R)-3,4-dihydroxy-5-[6-(iso-propylamino)purin-9-yl]tetrahydrofuran-2-yl]methoxymethyl-phosphonic acid] | 0.1 to 1 | > 1 |  |
| CC(C)Nc1nc(Cl)nc2c1ncn2[C@@H]1O[C@H](COCP(=O)(O)O)[C@@H](O)[C@H]1O [Compound 15, [(2R,3S,4R,5R)-5-[2-chloro-6-(isopropyl-amino)purin-9-yl]-3,4-dihydroxy-tetra-hydrofuran-2-yl]-methoxymethylphos-phonic acid] | 0.01 to 0.1 | 0.1 to 1 |  |
| CC(C)Nc1nc(C#N)nc2c1ncn2[C@@H]1O[C@H](COCP(=O)(O)O)[C@@H](O)[C@H]1O [Compound 16, [(2R,3S,4R,5R)-5-[2-cyano-6-(isopropyl-amino)purin-9-yl]-3,4-dihydroxy-tetrahydrofuran-2-yl]methoxymethyl-phosphonic acid] | 0.01 to 0.1 | 0.1 to 1 |  |
| CC(Nc1ncnc2c1ncn2[C@@H]1O[C@H](COCP(=O)(O)O)[C@@H](O)[C@H]1O)c1ccccc1 (stereo partly drawn) [Compound 18, [(2R,3S,4R,5R)-3,4-dihydroxy-5-[6-(1-phenylethylamino)purin-9-yl]tetrahydrofuran-2-yl]methoxymethylphosphonic acid] | 0.1 to 1 | 0.1 to 1 |  |
| C[C@@H](Nc1nc(Cl)nc2c1ncn2[C@@H]1O[C@H](COCP(=O)(O)O)[C@@H](O)[C@H]1O)c1ccccc1 [Compound 20, [(2R,3S,4R,5R)-5-[2-chloro-6-[[(1R)-1-phenylethyl]amino]-purin-9-yl]-3,4-dihydroxy-tetrahydro-furan-2-yl]methoxy-methylphosphonic acid] | 0.01 to 0.1 | 0.01 to 0.1 |  |
| C[C@H](Nc1nc(Cl)nc2c1ncn2[C@@H]1O[C@H](COCP(=O)(O)O)[C@@H](O)[C@H]1O)c1ccccc1 [Compound 21, ((((2R,3S,4R,5R)-5-(2-chloro-6-(((S)-1-phenylethyl)amino)-9H-purin-9-yl)-3,4-dihydroxytetrahydrofuran-2-yl)methoxy)methyl)phosphonic acid] | 0.01 to 0.1 | 0.01 to 0.1 |  |
| O=P(O)(O)COC[C@H]1O[C@@H](n2cnc3c(NC4CCCC4)ncnc32)[C@H](O)[C@@H]1O [Compound 32, [(2R,3S,4R,5R)-5-[6-(cyclopentylamino)-purin-9-yl]-3,4-dihydroxy-tetrahydro-furan-2-yl]methoxy-methylphosphonic acid] | 0.1 to 1 | 0.1 to 1 |  |
| C[C@H](Nc1nc(C#N)nc2c1ncn2[C@@H]1O[C@H](COCP(=O)(O)O)[C@@H](O)[C@H]1O)c1ccccc1 [Compound 36, [(2R,3S,4R,5R)-5-[2-cyano-6-[[(1S)-1-phenylethyl]amino]purin-9-yl]-3,4-dihydroxy-tetrahydrofuran-2-yl]methoxymethylphosphonic acid; 2,2,2-trifluoroacetic acid] | 0.01 to 0.1 | 0.01 to 0.1 |  |
| O=P(O)(O)COC[C@H]1O[C@@H](n2cnc3c(N4CCCC4)ncnc32)[C@H](O)[C@@H]1O [Compound 43, [(2R,3S,4R,5R)-3,4-dihydroxy-5-(6-pyrrolidin-1-ylpurin-9-yl)tetrahydrofuran-2-yl]methoxymethyl-phosphonic acid] | 0.1 to 1 | 0.1 to 1 |  |
| O=P(O)(O)COC[C@H]1O[C@@H](n2cnc3c(-c4ccccc4)ncnc32)[C@H](O)[C@@H]1O [Compound 46, [(2R,3S,4R,5R)-3,4-dihydroxy-5-(6-phenylpurin-9-yl)tetrahydrofuran-2-yl]methoxymethylphosphonic acid] | > 1 | > 1 |  |
| C[C@H](Nc1ncnc2c1ncn2[C@@H]1O[C@H](COCP(=O)(O)O)[C@@H](O)[C@H]1O)c1ccc(F)cc1 [Compound 49, [(2R,3S,4R,5R)-5-[6-[[(1S)-1-(4-fluoro-phenyl)ethyl]amino]-purin-9-yl]-3,4-dihydroxy-tetrahydro-furan-2-yl]methoxy-methylphosphonic acid] | 0.01 to 0.1 | 0.01 to 0.1 |  |
| O=P(O)(O)COC[C@H]1O[C@@H](n2cnc3c(NC4CCc5ccccc54)ncnc32)[C@H](O)[C@@H]1O (stereo partly shown) [Compound 52] | 0.1 to 1 | 0.1 to 1 |  |
| O=P(O)(O)COC[C@H]1O[C@@H](n2ccc3c(NC4CCCC4)nc(C(F)F)nc32)[C@H](O)[C@@H]1O [Compound 239, [(2R,3S,4R,5R)-5-[4-(cyclopentylamino)-2-(difluoromethyl)pyrrolo-[2,3-d]pyrimidin-7-yl]-3,4-dihydroxy-tetra-hydrofuran-2-yl]-methoxymethylphos-phonic acid] |  | 0.01 to 0.1 |  |
| O=P(O)(O)COC[C@H]1O[C@@H](n2ccc3c(NC4CNC4)nc(Cl)nc32)[C@H](O)[C@@H]1O [Compound 245, [(2R,3S,4R,5R)-5-[4-(azetidin-3-ylamino)-2-chloro-pyrrolo[2,3-d]pyrimidin-7-yl]-3,4-dihydroxy-tetrahydro-furan-2-yl]methoxy-methylphosphonic acid] | 0.1 to 1 |  |  |
| CCCCCCCCCCCCCCCCOCCCOP(=O)(O)COC[C@H]1O[C@@H](n2ccc3c(NC4CCCC4)nc(Cl)nc32)[C@H](O)[C@@H]1O [Compound 246, [(2R,3S,4R,5R)-5-[2-chloro-4-(cyclopentyl-amino)pyrrolo[2,3-d]-pyrimidin-7-yl]-3,4-dihydroxy-tetrahydro-furan-2-yl]methoxy-methyl-(3-hexadecoxy-propoxy)phosphinic acid] | > 1 |  |  |
| CN(C)CCOc1nc(NC2CCCC2)c2ccn([C@@H]3O[C@H](COCP(=O)(O)O)[C@@H](O)[C@H]3O)c2n1 [Compound 259, [(2R,3S,4R,5R)-5-[4-(cyclopentylamino)-2-[2-(dimethylamino)-ethoxy]pyrrolo[2,3-d]-pyrimidin-7-yl]-3,4-dihydroxy-tetrahydro-furan-2-yl]methoxy-methylphosphonic acid] | 0.1 to 1 |  |  |
| O=P(O)(O)COC[C@H]1O[C@@H](n2ccc3c(NC4CCCC4)nc(OCc4ccccn4)nc32)[C@H](O)[C@@H]1O [Compound 264, [(2R,3S,4R,5R)-5-[4-(cyclopentylamino)-2-(2-pyridylmethoxy)-pyrrolo[2,3-d]pyrimidin-7-yl]-3,4-dihydroxy-tetrahydrofuran-2-yl]-methoxymethylphos-phonic acid] | 0.1 to 1 |  |  |
| O=P(O)(O)CP(=O)(O)OC[C@H]1O[C@@H](n2cnc3c(NC4CCCC4)nc(Cl)nc32)[C@H](O)[C@@H]1O [Compound 282, [[(2R,3S,4R,5R)-5-[2-chloro-6-(cyclopentyl-amino)purin-9-yl]-3,4-dihydroxy-tetrahydro-furan-2-yl]methoxy-hydroxy-phosphoryl]-methylphosphonic acid] | < 0.01 |  |  |
| O=P(O)(O)COC[C@H]1O[C@@H](c2scc3c(N4CCCC4)nc(O)nc23)[C@H](O)[C@@H]1O [Compound 302] | > 1 |  |  |
| Nc1ncnc2c1ncn2[C@@H]1O[C@H](COP(=O)(O)CP(=O)(O)O)[C@@H](O)[C@H]1O [adenosine 5′-(α,β-methylene)diphosphate, reference compound] |  |  | 0.05 |
